The text below walks through data of patent US7767463B2, “Method for screening mobile phases in chromatography systems” (Cohesive Technologies, Inc., priority 2007, dated 2010).

The format of the series is physicochemical. An excerpt: The method provided herein provides for a technique to more reliably screen and select an appropriate eluent protocol. In an exemplary embodiment, reference is therefore made to FIG. 2. A given solvent or solvent combination may be prepared 210. Then a desired sample, alone or premixed with the same or another solvent, may be combined with the given solvent forming a mobile phase 220. The mobile phase may then be passed through a membrane 230. As discussed more fully below, the membrane may be representative of a particular chromatographic column with respect to variables such as pore diameter. The pressure of the mobile phase as it passes through the membrane may then be measured by pressure detectors on one or both sides of the membrane 240. The pressure differential between mobile phases containing the desired sample and various solvents may be assessed at 250. […]
The pressure developed prior to the membrane as the mobile phase passes through the membrane may be, as discussed above, indicative of the dissolution between the sample and the solvent. […] In addition, by comparing the pressure developed prior to the membrane of a given mobile phase P1 with a sample to a similar sample in other and different solvents, relative solubility may again be determined. […]

Structures are written as SMILES.

Turning to `c1ccc2ccccc2c1` [naphthalene], the pressure differential stood at 25 bar.
